According to patent US20160183527A1, “FUNGICIDAL COMPOSITIONS” (Dow AgroSciences LLC, priority 2014, published 2016):

Legend:
Format in all cases: physicochemical
[1] = Approximate (relative) solubility of active ingredients in organic solvents at ambient temperature; conditions: 0.2 g of Compound A mixed with 1.38 g of cyclohexanone
Protocol: The approximate solubility of Compound A was determined by mixing a known mass of the active ingredient with an increasing mass of each solvent at ambient temperature. […] The solubility of Compound A in the solvents used in this screening procedure was generally classified within the following concentration ranges: […]

[2] = Solubility of Compound A and prothioconazole in benzyl acetate/AMD810 blends at 10° C. (HPLC); conditions: both actives saturated
Protocol: A study of the Compound A and prothioconazole solubility in blends of benzyl acetate/AMD810 was conducted. To each solvent blend both actives were added until each was saturated and the resulting mixtures were then stored at 10° C. until equilibrium was obtained. Aliquots of the supernatant layer were taken from each sample, filtered (0.45 μm mesh) and analyzed by HPLC to determine the solution concentration of each active in the blends.

[3] = Accelerated storage stability, 54° C. for 2 weeks (HPLC); conditions: 2 weeks at 54° C.
Protocol: Sample 1 was stored at 54° C. for 2 weeks in a closed container.
Sample 6 was stored at 54° C. for 2 weeks in a closed container.
Sample 7 was stored at 54° C. for 2 weeks in a closed container.

COc1ccnc(C(=O)N[C@H]2COC(=O)[C@H](Cc3ccccc3)[C@@H](OC(=O)C(C)C)[C@H](C)OC2=O)c1OCOC(=O)C(C)C [Compound A, propanoic acid, 2-methyl-, [[4-methoxy-2-[[[(3S,7R,8R,9S)-9-methyl-8-(2-methyl-1-oxopropoxy)-2,6-dioxo-7-(phenylmethyl)-1,5-dioxonan-3-yl]amino]carbonyl]-3-pyridinyl]oxy]methyl ester]
Compound A content of clear solution in cyclohexanone [1]: 12.6 % w/w | Compound A Solubility at 10° C. ([2]; benzyl acetate 0 wt % in benzyl acetate/AMD810 blend): 3.3 % w/w | Compound A Solubility at 10° C. ([2]; benzyl acetate 20 wt % in benzyl acetate/AMD810 blend): 4.3 % w/w | Compound A Solubility at 10° C. ([2]; benzyl acetate 40 wt % in benzyl acetate/AMD810 blend): 6.5 % w/w | Compound A Solubility at 10° C. ([2]; benzyl acetate 60 wt % in benzyl acetate/AMD810 blend): 11.0 % w/w | Compound A Solubility at 10° C. ([2]; benzyl acetate 80 wt % in benzyl acetate/AMD810 blend): 12.0 % w/w | Compound A after Storage (% retention) ([3]; composition wt %: Compound A 3.4, AMD 810 96.0, third solvent none): 49^ % retention | Compound A after Storage (% retention) ([3]; composition wt %: Compound A 4.9, benzyl acetate 94.1, third solvent none): 85^ % retention | Compound A after Storage (% retention) ([3]; composition wt %: Compound A 12.0, cyclohexanone 85.7): 96^ % retention | Compound A after Storage (% retention) ([3]; wt %: Compound A 4.9, pyraclostrobin 6.3, benzyl acetate 41.2, AMD 810 22.2, cyclohexanone 9.8): 98^ % retention | Compound A after Storage (% retention) ([3]; wt %: Compound A 5.0, pyraclostrobin 6.4, benzyl acetate 40.9, AMD 810 22.0, 2-ethyl hexanol 10.0): 95^ % retention | Compound A after Storage (% retention) ([3]; wt %: Compound A 7.7, pyraclostrobin 9.8, benzyl acetate 37.1, AMD 810 20.0, cyclohexanone 9.6): 97^ % retention | Compound A after Storage (% retention) ([3]; wt %: Compound A 7.8, pyraclostrobin 9.9, benzyl acetate 36.7, AMD 810 19.8, 2-ethyl hexanol 9.7): 97^ % retention
